Reference: ChEMBL document CHEMBL5380773, “Novel Feleucin-K3-Derived Peptides Modified with Sulfono-γ-AA Building Blocks Targeting Pseudomonas aeruginosa and Methicillin-Resistant Staphylococcus aureus Infections” (J Med Chem, 2023)
Calls of active or inactive are those of the source. Numbered stars: 1 amine (or outer) side, 2 acyl side, 3 side chain; on linkers, the order of the positions; unused ones are H or OH. Square brackets hold non-standard residues; d marks the D form. Peptide text beside a SMILES is read from it. * marks the point of attachment. X2 = CC(C)C[C@H](N)CN(CC(=O)[*:2])[*:1]; X1 = O=S(=O)(c1ccc(I)cc1)*

How the values were obtained:
[1] = test system: Staphylococcus aureus; experiment: Induction of resistant development in methicillin resistant Staphylococcus aureus ATCC 33591 assessed as fold increase by serial passage assay; format: functional
[2] = test system: Staphylococcus aureus; experiment: Antimicrobial activity against methicillin resistant Staphylococcus aureus ATCC 33591 infected in skin wound mouse model assessed as reduction in skin wound bacterial load at 0.25 to 4 mg/kg measured on day 3 and 7 […]; format: functional, organism-based; settings: dose 0.25-4 mg/kg, time 3-7 day
[3] = test system: Cell membrane; experiment: Induction of membrane disruption in methicillin resistant Staphylococcus aureus ATCC 33591 assessed as separation […] at 2 to 4 times MIC incubated for 2 to 4 hrs by TEM analysis; format: subcellular; settings: time 2-4 hrs
[4] = test system: Pseudomonas aeruginosa; experiment: Antimicrobial activity against Pseudomonas aeruginosa ATCC 27853 infected in C57BL/6J mouse assessed as reduction in IL-1beta at 2.5 mg/kg, ip measured after 72 hrs […]; format: functional, organism-based
[5] = test system: Cell membrane; experiment: Induction of cytoplasmic membrane depolarization in methicillin resistant Staphylococcus aureus ATCC 33591 by DiSC35 dye based fluorescence method
[6] = test system: Cell membrane; experiment: Induction of membrane disruption in methicillin resistant Staphylococcus aureus ATCC 33591 assessed as cell lysis at high concentration incubated for 24 hrs by SEM analysis; format: subcellular
[7] = test system: Staphylococcus aureus; experiment: Bactericidal activity against Staphylococcus aureus ATCC 25923 at 4 times MIC after 1 hr by time kill assay; format: functional, organism-based
[8] = test system: Cell membrane; experiment: Induction of membrane disruption in Pseudomonas aeruginosa ATCC 27853 assessed as membrane blebbing at low concentration incubated for 24 hrs by SEM analysis; format: subcellular
[9] = test system: Pseudomonas aeruginosa; experiment: Antimicrobial activity against Pseudomonas aeruginosa ATCC 27853 infected in C57BL/6J mouse assessed as reduction in lung bacterial load at 10 mg/kg, ip measured after 72 hrs […] (reference value: 6.4 10^3CFU/mg); format: functional
[10] = test system: Cell membrane; experiment: Induction of outer membrane disruption in Pseudomonas aeruginosa in presence of FeCl3 by NPN uptake assay; format: subcellular
[11] = test system: Pseudomonas aeruginosa; experiment: Antibiofilm activity against Pseudomonas aeruginosa ATCC 27853 at MBIC50; format: functional, organism-based
[12] = test system: Cell membrane; experiment: Induction of membrane disruption in methicillin resistant Staphylococcus aureus ATCC 33591 assessed as cytoplasmic leakage at 2 to 4 times MIC incubated for 2 to 4 hrs by TEM analysis; format: subcellular; settings: time 2-4 hrs
[13] = test system: Staphylococcus aureus; experiment: Antimicrobial activity against methicillin resistant Staphylococcus aureus ATCC 33591 infected in skin wound mouse model assessed as reduction in number of inflammatory cells at 1 to 4 mg/kg measured on day 3 and 7 by H and E staining based assay; format: functional, organism-based; settings: dose 1-4 mg/kg, time 3-7 day
[14] = test system: Staphylococcus aureus; experiment: Antibiofilm activity against Staphylococcus aureus ATCC 25923 at 4 to 8 ug/ml incubated for 24 hrs by crystal violet staining based microplate reader analysis; format: functional, organism-based; settings: dose 4-8 µg/ml
[15] = test system: Pseudomonas aeruginosa; experiment: Induction of DNA leakage in Pseudomonas aeruginosa ATCC 27853 after 1 to 6 hrs; format: functional, organism-based; settings: time 1-6 hrs
[16] = test system: Staphylococcus aureus; experiment: Antibiofilm activity against methicillin resistant Staphylococcus aureus ATCC 33591 assessed as reduction in biofilm mass; format: functional, organism-based
[17] = test system: Pseudomonas aeruginosa; experiment: Antimicrobial activity against Pseudomonas aeruginosa ATCC 27853 incubated for 18 hrs by microdilution method; format: functional
[18] = test system: Cell membrane; experiment: Induction of membrane disruption in Pseudomonas aeruginosa ATCC 27853 assessed as separation of cytoplasmic membrane at 2 to 4 times MIC incubated for 24 hrs by TEM analysis; format: subcellular
[19] = test system: DNA; experiment: Binding affinity to Staphylococcus epidermidis DNA at 8 times MIC incubated for 30 mins; format: nucleic-acid assay
[20] = test system: Cell membrane; experiment: Induction of membrane disruption in Pseudomonas aeruginosa ATCC 27853 assessed as membrane collapse at high concentration incubated for 24 hrs by SEM analysis; format: subcellular
[21] = test system: Pseudomonas aeruginosa; experiment: Antimicrobial activity against Pseudomonas aeruginosa in presence of LPS/LTA; format: functional
[22] = test system: Staphylococcus aureus; experiment: (§1) Antimicrobial activity against methicillin resistant Staphylococcus aureus ATCC 33591 infected in BALB/c mouse assessed as reduction in tissue damage at 0.25 to 1 mg/kg infected with bacteria for 2 hrs prior to compound addition on 1, 24 and 48 hrs and measured after 72 hrs by H and E staining based assay; format: functional, organism-based; settings: dose 0.25-1 mg/kg
[23] = test system: Staphylococcus aureus; experiment: as §1, with “sessile bacteria attached on catheters surface” for “tissue damage”; format: functional, organism-based; settings: dose 0.25-1 mg/kg
[24] = test system: Staphylococcus epidermidis; experiment: Antibiofilm activity against Staphylococcus epidermidis ATCC 12228 at 4 to 8 ug/ml incubated for 24 hrs by crystal violet staining based microplate reader analysis; format: functional, organism-based; settings: dose 4-8 µg/ml
[25] = test system: Pseudomonas aeruginosa; experiment: Antibiofilm activity against Pseudomonas aeruginosa ATCC 27853 assessed as reduction in biofilm thickness at 1 times MBIC50 incubated for 24 hrs by confocal laser scanning microscopy analysis (reference value: 90 micrometer); format: functional
[26] = test system: Pseudomonas aeruginosa; experiment: Antimicrobial activity against Pseudomonas aeruginosa ATCC 27853 infected in C57BL/6J mouse assessed as reduction in TNF-alpha at 2.5 mg/kg, ip measured after 72 hrs […]; format: functional, organism-based
[27] = test system: Cell membrane; experiment: Induction of membrane disruption in methicillin resistant Staphylococcus aureus ATCC 33591 assessed as membrane collapse at 2 to 4 times MIC incubated for 2 to 4 hrs by TEM analysis; format: subcellular; settings: time 2-4 hrs
[28] = test system: Cell membrane; experiment: Induction of membrane disruption in methicillin resistant Staphylococcus aureus ATCC 33591 assessed as separation of cytoplasmic membrane at 2 to 4 times MIC incubated for 2 to 4 hrs by TEM analysis; format: subcellular; settings: time 2-4 hrs
[29] = test system: Cell membrane; experiment: Induction of membrane disruption in Pseudomonas aeruginosa ATCC 27853 assessed as membrane collapse at 2 to 4 times MIC incubated for 24 hrs by TEM analysis; format: subcellular
[30] = test system: Staphylococcus aureus; experiment: Antimicrobial activity against Staphylococcus aureus in presence of LPS/LTA; format: functional
[31] = test system: Pseudomonas aeruginosa; experiment: Antibiofilm activity against Pseudomonas aeruginosa ATCC 27853 assessed as reduction in biofilm thickness at 2 times MBIC90 incubated for 24 hrs by confocal laser scanning microscopy analysis; format: functional
[32] = test system: Staphylococcus aureus; experiment: Antibiofilm activity against methicillin resistant Staphylococcus aureus ATCC 33591 assessed as reduction in biofilm structures at MBIC90 by scanning electron microscopic analysis; format: functional, organism-based
[33] = test system: Staphylococcus aureus; experiment: Bactericidal activity against methicillin resistant Staphylococcus aureus ATCC 33591 at 4 times MIC after 2 to 4 hrs; format: functional, organism-based; settings: time 2-4 hrs
[34] = test system: Staphylococcus aureus; experiment: Antimicrobial activity against methicillin resistant Staphylococcus aureus ATCC 33591 infected in skin wound mouse model assessed as reduction in skin damage at 0.25 mg/kg measured upto 10 days by H and E staining based assay; format: functional, organism-based; settings: time <= 10.0 day
[35] = test system: Pseudomonas aeruginosa; experiment: Bactericidal activity against Pseudomonas aeruginosa ATCC 27853 at 4 times MIC after 2 to 6 hrs by time kill assay; format: functional, organism-based; settings: time 2-6 hrs
[36] = test system: Cell membrane; experiment: Induction of membrane disruption in methicillin resistant Staphylococcus aureus ATCC 33591 assessed as membrane collapse at high concentration incubated for 24 hrs by SEM analysis; format: subcellular
[37] = test system: Staphylococcus aureus; experiment: Bactericidal activity against methicillin resistant Staphylococcus aureus ATCC 33591 at 4 times MIC after 1 to 2.5 hrs by time kill assay; format: functional, organism-based; settings: time 1-2.5 hrs
[38] = test system: Pseudomonas aeruginosa; experiment: Induction of DNA leakage in Pseudomonas aeruginosa ATCC 27853; format: functional, organism-based; settings: TDE = time-dependent effect
[39] = test system: Staphylococcus epidermidis; experiment: Bactericidal activity against Staphylococcus epidermidis ATCC 12228 at 4 times MIC after 0.5 hrs; format: functional, organism-based

CC(C)C[C@H](N)CN(CC(=O)N[C@@H](CCCCN)C(=O)N[C@@H](CC(C)C)C(=O)N[C@@H](CC(C)C)C(=O)N[C@@H](CCCCN)C(=O)N[C@@H](CCCCN)C(=O)N[C@@H](CC(C)C)C(=O)N[C@@H](CC(C)C)C(N)=O)S(=O)(=O)c1ccc(I)cc1 (X1-[X2]KLLKKLL-NH2)
≥ 16 µg/mL: MIC [30]
≥ 64 µg/mL: MIC [21]
60 um: Activity [31]
40 um: Activity [25]
2: fold change (FC) [1]
active: Activity [2] | Activity [3] | Activity [4] | Activity [5] | Activity [6] | Activity [7] | Activity [8] | Activity [10] | Activity [11] | Activity [12] | Activity [13] | Activity [14] | Activity [15] Dose-Dependent Effect | Activity [16] | Activity [18] | Activity [19] | Activity [20] | Activity [22] | Activity [23] | Activity [24] | Activity [26] | Activity [27] | Activity [28] | Activity [29] | Activity [32] | Activity [33] | Activity [34] | Activity [35] | Activity [36] | Activity [37] | Activity [38] Tde | Activity [39]
1 10^3CFU/mg: Activity [9]
3 µg/mL: MIC [17]
